US20230017045A1, “PYRIDINE AND PYRIMIDINE CARBOXYLATE HERBICIDES AND METHODS OF USE THEREOF” (Dow AgroSciences LLC, priority 2017, published 2023)
Read-outs that look alike come from different tables or passages of the source.

Tested on: test plant species
Assay: Post-emergent herbicidal activity test (greenhouse, foliar spray, visual growth reduction)
Assay type: in vivo
Conditions: post-emergence, 336 h, 140 g ai/ha
In short: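 Greenhouse plants at first–second true leaf stage sprayed overhead at 187 L/ha with compound in acetone/water/isopropanol/DMSO/crop oil/X-77 carrier; controls received solvent blank. Injury rated visually after 14 d on a 0–100% scale versus untreated and control plants, converted to growth reduction.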

[1] = ECHCG: barnyardgrass (Echinochloa crus-galli), 14 days after application, read-out: Visual Growth Reduction (%) 14 Days After Application, ECHCG
[2] = IPOHE: ivy-leaf morning glory (Ipomoea hederacea), 14 days after application, read-out: Visual Growth Reduction (%) 14 Days After Application, IPOHE
[3] = KCHSC: kochia (Bassia scoparia), 14 days after application, read-out: Visual Growth Reduction (%) 14 Days After Application, KCHSC
[4] = ORYSA: rice (Oryza sativa), 14 days after application, read-out: Visual Growth Reduction (%) 14 Days After Application, ORYSA
[5] = SETFA: giant foxtail (Setaria faberi), 14 days after application, read-out: Visual Growth Reduction (%) 14 Days After Application, SETFA
[6] = SORVU: grain sorghum (Sorghum vulgare), 14 days after application, read-out: Visual Growth Reduction (%) 14 Days After Application, SORVU
[7] = STEME: common chickweed (Stellaria media), 14 days after application, read-out: Visual Growth Reduction (%) 14 Days After Application, STEME
[8] = TRZAS: wheat, spring (Triticum aestivum), 14 days after application, read-out: Visual Growth Reduction (%) 14 Days After Application, TRZAS
[9] = blackgrass (Alopecurus myosuroides), 14 Days After Application, read-out: Visual Growth Reduction (%) ALOMY
[10] = canada thistle (Cirsium arvense), 14 Days After Application, read-out: Visual Growth Reduction (%) CIRAR
[11] = crabgrass (Digitaria sanguinalis), 14 Days After Application, read-out: Visual Growth Reduction (%) DIGSA
[12] = lambsquarters (Chenopodium album), 14 Days After Application, read-out: Visual Growth Reduction (%) CHEAL
[13] = redroot pigweed (Amaranthus retroflexus), 14 Days After Application, read-out: Visual Growth Reduction (%) AMARE
[14] = wild oat (Avena fatua), 14 Days After Application, read-out: Visual Growth Reduction (%) AVEFA
[15] = yellow nutsedge (Cyperus esculentus), 14 Days After Application, read-out: Visual Growth Reduction (%) CYPES
[16] = ALOMY: blackgrass (Alopecurus myosuroides), 14 days after application, read-out: Visual Growth Reduction (%) 14 Days After Application, ALOMY
[17] = AMARE: redroot pigweed (Amaranthus retroflexus), 14 days after application, read-out: Visual Growth Reduction (%) 14 Days After Application, AMARE
[18] = AVEFA: wild oat (Avena fatua), 14 days after application, read-out: Visual Growth Reduction (%) 14 Days After Application, AVEFA
[19] = CHEAL: lambsquarters (Chenopodium album), 14 days after application, read-out: Visual Growth Reduction (%) 14 Days After Application, CHEAL
[20] = CIRAR: canada thistle (Cirsium arvense), 14 days after application, read-out: Visual Growth Reduction (%) 14 Days After Application, CIRAR
[21] = CYPES: yellow nutsedge (Cyperus esculentus), 14 days after application, read-out: Visual Growth Reduction (%) 14 Days After Application, CYPES
[22] = DIGSA: crabgrass (Digitaria sanguinalis), 14 days after application, read-out: Visual Growth Reduction (%) 14 Days After Application, DIGSA

Structure (SMILES) | pest or weed control at 140 g/ha [1] [%] | pest or weed control at 140 g/ha [2] [%] | pest or weed control at 140 g/ha [3] [%] | pest or weed control at 140 g/ha [4] [%] | pest or weed control at 140 g/ha [5] [%] | pest or weed control at 140 g/ha [6] [%] | pest or weed control at 140 g/ha [7] [%] | pest or weed control at 140 g/ha [8] [%] | pest or weed control at 140 g/ha [9] [%] | pest or weed control at 140 g/ha [10] [%] | pest or weed control at 140 g/ha [11] [%] | pest or weed control at 140 g/ha [12] [%] | pest or weed control at 140 g/ha [13] [%] | pest or weed control at 140 g/ha [14] [%] | pest or weed control at 140 g/ha [15] [%] | pest or weed control at 140 g/ha [16] [%] | pest or weed control at 140 g/ha [17] [%] | pest or weed control at 140 g/ha [18] [%] | pest or weed control at 140 g/ha [19] [%] | pest or weed control at 140 g/ha [20] [%] | other results
COC(=O)c1nc(-c2ccc(OS(C)(=O)=O)cc2F)c(F)cc1Cl [F343] | 85 to 94 | 95 to 100 | 85 to 94 | 30 to 44 | 85 to 94 | 95 to 100 | 0 to 29 | 60 to 74 | 0 to 29 | 95 to 100 | 85 to 94 | 85 to 94 | 95 to 100 | 30 to 44 | 30 to 44 |  |  |  |  |  | 
COC(=O)c1nc(-c2cc(Cl)c(C(F)(F)F)cc2C)c(F)cc1Cl [F370, Methyl 3-chloro-6-(5-chloro-2-methyl-4-(trifluoromethyl)phenyl)-5-fluoropicolinate] | 0 to 29 | 95 to 100 | 0 to 29 | 0 to 29 | 60 to 74 | 85 to 94 | 0 to 29 | 0 to 29 | 0 to 29 | 75 to 84 | 45 to 59 | 45 to 59 | 85 to 94 | 0 to 29 | 0 to 29 |  |  |  |  |  | 
C#Cc1cc(C(F)(F)F)ccc1-c1ccc(Cl)c(C(=O)OC)n1 [F16, methyl 3-chloro-6-(2-ethynyl-4-(trifluoromethyl)phenyl) picolinate] |  |  |  |  |  |  |  |  |  |  |  |  |  |  |  | 0 to 29 | 30 to 44 | 0 to 29 | 0 to 29 | 30 to 44 | pest or weed control at 140 g/ha [21]: 0 to 29%; pest or weed control at 140 g/ha [22]: 0 to 29%; pest or weed control at 140 g/ha (barnyardgrass (Echinochloa crus-galli), 14 Days After Application, read-out: Visual Growth Reduction (%) ECHCG): 0 to 29%; pest or weed control at 140 g/ha (common chickweed (Stellaria media), 14 Days After Application, read-out: Visual Growth Reduction (%) STEME): 0 to 29%; pest or weed control at 140 g/ha (giant foxtail (Setaria faberi), 14 Days After Application, read-out: Visual Growth Reduction (%) SETFA): 0 to 29%; pest or weed control at 140 g/ha (ivy-leaf morning glory (Ipomoea hederacea), 14 Days After Application, read-out: Visual Growth Reduction (%) IPOHE): 95 to 100%; pest or weed control at 140 g/ha (johnsongrass (Sorghum vulgare), 14 Days After Application, read-out: Visual Growth Reduction (%) SORVU): 75 to 84%; pest or weed control at 140 g/ha (kochia (Bassia scoparia), 14 Days After Application, read-out: Visual Growth Reduction (%) KCHSC): 0 to 29%; pest or weed control at 140 g/ha (rice (Oryza sativa), 14 Days After Application, read-out: Visual Growth Reduction (%) ORYSA): 0 to 29%; pest or weed control at 140 g/ha (wheat, spring (Triticum aestivum), 14 Days After Application, read-out: Visual Growth Reduction (%) TRZAS): 0 to 29%
COC(=O)c1nc(-c2ncc(C(F)(F)F)cc2Cl)ccc1Cl [F101, methyl 3′,5-dichloro-5′-(trifluoromethyl)-[2,2′-bipyridine]-6-carboxylate] | 85 to 94 | 95 to 100 | 95 to 100 | 0 to 29 | 75 to 84 | 95 to 100 | 0 to 29 | 60 to 74 |  |  |  |  |  |  |  | 0 to 29 | 95 to 100 | 0 to 29 | 95 to 100 | 85 to 94 | pest or weed control at 140 g/ha [21]: 75 to 84%; pest or weed control at 140 g/ha [22]: 95 to 100%
COC(=O)c1nc(-c2cc(F)c(C(F)(F)F)cc2OC)ccc1Cl [F362, Methyl 3-chloro-6-(5-fluoro-2-methoxy-4-(trifluoromethyl)phenyl)picolinate] | 0 to 29 | 95 to 100 | 30 to 44 | 0 to 29 | 60 to 74 | 85 to 94 | 0 to 29 | 0 to 29 | 0 to 29 | 0 to 29 | 45 to 59 | 85 to 94 | 95 to 100 | 0 to 29 | 0 to 29 |  |  |  |  |  | 
COc1c(Cl)ccc(-c2ccc(Cl)c(C(=O)O)n2)c1F [F78, 3-chloro-6-(4-chloro-2-fluoro-3-methoxyphenyl)picolinic acid] | 0 to 29 | 45 to 59 |  | 0 to 29 | 0 to 29 | 0 to 29 | 30 to 44 | 0 to 29 |  |  |  |  |  |  |  | 0 to 29 | 45 to 59 | 0 to 29 | 75 to 84 | 60 to 74 | pest or weed control at 140 g/ha [21]: 0 to 29%; pest or weed control at 140 g/ha [22]: 0 to 29%
COC(=O)c1nc(-c2ccc(C(F)(F)F)cc2Cl)ccc1C [F53, Methyl 6-(2-chloro-4-(trifluoromethyl)phenyl)-3-methylpicolinate] | 0 to 29 |  | 0 to 29 | 0 to 29 | 0 to 29 | 0 to 29 | 0 to 29 | 0 to 29 |  |  |  |  |  |  |  | 60 to 74 | 95 to 100 | 75 to 84 | 95 to 100 | 95 to 100 | pest or weed control at 140 g/ha [21]: 0 to 29%; pest or weed control at 140 g/ha [22]: 95 to 100%
COc1nc(C(F)(F)F)ccc1-c1nc(C(=O)O)c(Cl)cc1F [F347, 5-Chloro-3-fluoro-2′-methoxy-6′-(trifluoromethyl)-[2,3′-bipyridine]-6-carboxylic acid] | 85 to 94 | 95 to 100 | 85 to 94 | 30 to 44 | 85 to 94 | 85 to 94 | 0 to 29 | 75 to 84 | 60 to 74 | 85 to 94 | 95 to 100 | 95 to 100 | 95 to 100 | 60 to 74 | 0 to 29 |  |  |  |  |  | 
COC(=O)c1nc(-c2cc(SC)c(C(F)(F)F)cc2Cl)c(F)cc1Cl [F332, Methyl 3-chloro-6-(2-chloro-5-(methylthio)-4-(trifluoromethyl)phenyl) 5-fluoropicolinate] | 0 to 29 | 0 to 29 | 30 to 44 | 0 to 29 | 0 to 29 | 0 to 29 | 0 to 29 | 0 to 29 | 0 to 29 |  | 0 to 29 | 0 to 29 | 0 to 29 | 0 to 29 | 0 to 29 |  |  |  |  |  | 
